The values below come from patent US8758822B2, “Method for manufacturing uniform size polymeric nanoparticles containing poorly soluble drugs” (Korea Research Institute of Bioscience and Biotechnology, priority 2008, dated 2014).

In series [1] the test system is carbon tetrachloride-induced liver damage. Put plainly: Treatment effects on carbon tetrachloride-induced liver damage. The conditions noted are these: blood serum after 4 weeks; for Relative concentration of ALT against the control group: 25 mg/kg oral; for ALT* (average ALT concentration ± deviation): 25 mg/kg oral once a day, 6 times a week, CCl4 0.75 ml/kg i.p. 2 times a week. The class given is in vivo, Sprague Dawley rats. The method, then: 6-week old 20 male Sprague Dawley rats (Orient Bio, Korea) were weighed and distributed to 4 groups 5 to each group to be equal in average weight and degree of dispersion. Under the condition of 23±2′C of temperature and 55±5% of relative humidity in an animal facility, 0.75 ml/kg of 50% solution (v/v) (Sigma-Aldrich, USA) of liver toxic carbon tetrachloride (CCl4) mixed with corn oil was injected each time into the peritoneal cavity 2 times a week (Mondays & Fridays) for 4 weeks.
(§1) 1. For Group 1 (control group), 0.75 ml/kg of carbon tetrachloride was injected each time into the peritoneal cavity 2 times a week (Mondays & Fridays) for 4 weeks, and no additional compounds was administered any more.
2. For Group 2, in addition to the 0.75 ml/kg of carbon tetrachloride injection each time into the peritoneal cavity 2 times a week (Mondays & Fridays) for 4 weeks, BDD equivalent to 25 mg per 1 kg of body weight of each rat, which was suspended in 1% (w/v) of CMC (carboxylmethyl cellulose sodium salt, Sigma-Aldrich, USA) solution were orally administered each time once a day, 6 times a week for 4 weeks.
3. For Group 3, in addition to the 0.75 ml/kg of carbon tetrachloride injection each time into the peritoneal cavity 2 times a week (Mondays & Fridays) for 4 weeks, BDD-containing polymeric nanoparticles of the present invention prepared via Example 2 equivalent to 25 mg per 1 kg of body weight of each rat, which were suspended in 1% (w/v) of CMC (Carboxylmethyl cellulose sodium salt, Sigma-Aldrich, USA) solution were orally administered each time once a day, 6 times a week for 4 weeks.
4. For Group 4 (no treatment group), no carbon tetrachloride and compounds were administered.
In detail, after 4 weeks, each animal was anesthetized by injecting 4% of 4 ml-chloral hydrate (BDH Laboratory Supplies, U.K.) Into the peritoneal cavity, and blood was taken out from the heart and left at a room temperature for an hour. After then, blood serum was obtained by spinning down at 16000 rpm for 20 minutes, and ALT and AST concentrations were measured by an automatic blood biochemistry analyzer (HITACHI 7080, HITACHI, Japan) using an ALT and AST test reagents (TA-Test Wako; WAKO Pure Chemical, Japan).

Another series relates to ICR rats. Briefly: Acute toxicity test. The conditions noted are these: for Fatality rate / No. of dead rats: after 1 week. Format: in vivo. An excerpt:
Acute toxicity was investigated upon administering the PLGA-BDD nanoparticles of the present invention prepared via Example 2.

For series [2] the following is noted: taken as a form of tablet; cited from earlier work.
In series [3] the test system is carbon tetrachloride-induced liver damage. The conditions noted are these: administered 2 weeks, CCl4 continued to 3 and 4 weeks; FIGS. 6 and 7. The method, then: as §1

Where only a bound is given, the exact number is not on record here.

What is called LD50 is the dose expected to kill half of the subjects tested. Low values mean greater toxicity, high ones lower toxicity.

In the case of `COC(=O)c1cc(OC)c2c(c1-c1c(C(=O)OC)cc(OC)c3c1OCO3)OCO2` [BDD, biphenyl-dimethyl-dicarboxylate], the “Relative concentration of ALT against the control group” value is recorded as 42% in series [1] (Table 2) and 52.9% in series [1] (Table 3). In addition, the entries for the “ALT* (average ALT concentration ± deviation)” value in series [1] (Table 2) and in series [1] (Table 3) were 229.6 ± 99.7 SF IU/l and 479.7 ± 144.8 SF IU/l, respectively. Moreover, the Fatality rate in the series on ICR rats (0.005 g per kg oral), in the series with ICR rats (0.1 g per kg oral), in the series on ICR rats (0.25 g per kg oral), in the series on ICR rats (0.5 g per kg oral) and in the series with ICR rats (1 g per kg oral) was 0% each time. Further, the “No. of dead rats” value in the series on ICR rats (0.005 g per kg oral), with ICR rats (0.1 g per kg oral), with ICR rats (0.25 g per kg oral), in the series on ICR rats (0.5 g per kg oral) and in the series with ICR rats (1 g per kg oral) was 0 throughout. Besides, the LD50 in the series with ICR rats (oral) is recorded as >2 g/kg. For the same compound, the bioavailability in series [2] was 20-30%. Also, the “inhibiting effect on increase of carbon tetrachloride-induced ALT and AST concentration over time” value in series [3] was “rebounded after 4 weeks”.
